The values that follow come from patent US8822517B2, “Arylosulfonamides for the treatment of CNS diseases” (Adamed SP. Z O.O., priority 2010, dated 2014).

For one assay, the target named is T1, adrenergic α1A receptor (Homo sapiens, UniProt P35348).
T1 sequence (P35348 1-466): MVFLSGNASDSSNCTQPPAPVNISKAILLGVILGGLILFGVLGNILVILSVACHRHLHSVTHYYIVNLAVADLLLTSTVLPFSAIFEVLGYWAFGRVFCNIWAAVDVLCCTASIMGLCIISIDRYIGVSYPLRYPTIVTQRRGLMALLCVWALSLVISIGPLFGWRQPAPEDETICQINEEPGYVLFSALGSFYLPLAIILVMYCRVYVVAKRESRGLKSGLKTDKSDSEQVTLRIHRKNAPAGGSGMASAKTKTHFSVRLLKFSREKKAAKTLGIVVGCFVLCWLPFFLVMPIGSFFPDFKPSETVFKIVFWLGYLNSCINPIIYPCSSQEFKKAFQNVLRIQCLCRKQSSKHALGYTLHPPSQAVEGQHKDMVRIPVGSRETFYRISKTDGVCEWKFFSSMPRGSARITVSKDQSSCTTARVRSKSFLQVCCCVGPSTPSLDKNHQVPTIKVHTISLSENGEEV
The experiment in a line: Cellular functional assay, adrenergic α1A receptor (agonism/antagonism). The class given is cell-based. The note with it: for activation at 1 µM: agonist effect, percent of control specific agonist response, compounds tested at 1×10^−6M, read-out: α1A -ag [%]; for inhibition at 1 µM: read-out: α1A -antag. [%]. Summed up:
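Human receptors tested in cell-based functional format for both agonist and antagonist modes. Single compound concentration of 1×10^−6M.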

In assay [1] the target is histaminergic H1 receptor (Homo sapiens, UniProt P35367). Put plainly: Binding assay H1 (h), [3H]pyrilamine, HEK-293 cells. Further details: expressed in transfected cells; host or cells: HEK-293 cells. Conditions: read-out: H1 [%]. Summed up: (§1)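 Detection relied on scintillation counting of bound ligand. Compounds at 1×10^−6 M were evaluated against specific binding, i.e. total binding corrected for the nonspecific fraction seen with excess unlabelled ligand.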

For a further assay, the system named is sigma σ receptor. The experiment in a line: Binding assay σ (non-selective), [3H]DTG, rat cerebral cortex. The note with it: percent inhibition of control specific binding; compounds tested at 1×10^−6 M. Put shortly: as §1
Assay [2] deals with T2, dopaminergic D2 receptor (Homo sapiens, UniProt P14416). Put plainly: Cellular functional assay, dopaminergic D2 receptor (agonism/antagonism). The class given is cell-based. The note with it: HEK293; for activation at 1 µM: agonist effect, percent of control specific agonist response (3 μM dopamine for control), 1×10^−6 M, D2S (h), HEK-293 cells, read-out: D2-ag [%]; for inhibition at 1 µM: read-out: D2-antag. [%]. How it is done: (§2) The compounds were tested at the concentration of 1×10^−6M.
(§3) In the Tables ag refers to agonism, and antag to antagonism).
Target sequence in this assay (P14416 whole entry): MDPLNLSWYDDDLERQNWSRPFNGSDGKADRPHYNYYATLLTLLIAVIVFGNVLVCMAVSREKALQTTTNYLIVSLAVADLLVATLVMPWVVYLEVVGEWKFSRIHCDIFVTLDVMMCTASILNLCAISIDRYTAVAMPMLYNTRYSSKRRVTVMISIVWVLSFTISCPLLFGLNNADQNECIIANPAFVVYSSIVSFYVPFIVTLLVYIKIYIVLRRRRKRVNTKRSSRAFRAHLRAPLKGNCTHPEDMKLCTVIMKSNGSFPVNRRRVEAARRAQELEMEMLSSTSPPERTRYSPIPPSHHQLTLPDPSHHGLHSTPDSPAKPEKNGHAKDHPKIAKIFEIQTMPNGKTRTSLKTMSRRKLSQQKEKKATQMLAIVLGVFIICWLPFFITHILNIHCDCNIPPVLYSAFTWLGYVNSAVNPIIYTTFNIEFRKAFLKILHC

The target in assay [3] is T3, adrenergic α2C receptor (Homo sapiens, UniProt P18825).
T3 sequence (P18825 1-462): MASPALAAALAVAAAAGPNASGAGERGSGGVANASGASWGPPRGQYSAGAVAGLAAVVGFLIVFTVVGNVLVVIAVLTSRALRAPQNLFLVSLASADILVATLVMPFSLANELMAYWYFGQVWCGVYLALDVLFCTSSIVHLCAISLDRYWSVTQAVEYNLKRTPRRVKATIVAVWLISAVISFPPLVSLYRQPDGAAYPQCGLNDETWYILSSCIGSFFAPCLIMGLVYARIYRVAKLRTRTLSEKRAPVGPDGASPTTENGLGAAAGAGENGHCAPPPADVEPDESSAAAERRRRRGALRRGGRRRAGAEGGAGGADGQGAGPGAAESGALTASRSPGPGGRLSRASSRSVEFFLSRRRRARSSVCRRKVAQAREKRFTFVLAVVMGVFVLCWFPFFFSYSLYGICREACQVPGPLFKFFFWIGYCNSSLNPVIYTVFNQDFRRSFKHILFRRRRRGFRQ
Put plainly: Binding assay α2C (h), [3H]RX 821002, CHO cells. Set-up: expressed in transfected cells; host or cells: CHO cells. Conditions: read-out: α2C [%]. Put shortly:
as §1

Assay [4] addresses T4, serotoninergic 5-HT1A receptor (Homo sapiens, UniProt P08908).
T4 sequence (P08908 1-422): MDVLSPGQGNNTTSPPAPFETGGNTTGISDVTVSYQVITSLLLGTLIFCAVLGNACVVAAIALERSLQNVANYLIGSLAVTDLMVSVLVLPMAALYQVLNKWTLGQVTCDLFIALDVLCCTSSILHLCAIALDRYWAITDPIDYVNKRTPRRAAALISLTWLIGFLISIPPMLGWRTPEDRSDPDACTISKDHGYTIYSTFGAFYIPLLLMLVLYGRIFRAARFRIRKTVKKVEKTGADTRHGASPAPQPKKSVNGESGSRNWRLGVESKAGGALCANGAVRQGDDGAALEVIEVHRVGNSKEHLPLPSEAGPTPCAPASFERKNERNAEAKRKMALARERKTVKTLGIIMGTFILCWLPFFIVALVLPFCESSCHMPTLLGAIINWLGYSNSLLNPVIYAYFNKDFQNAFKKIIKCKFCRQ
Put plainly: Binding assay 5-HT1A (h), [3H]8-OH-DPAT, HEK-293 cells. Further details: expressed in transfected cells; host or cells: HEK-293 cells. The note with it: read-out: 5-HT1A. Put shortly: as §1

The target in assay [5] is T2, dopaminergic D2 receptor. Put plainly: Binding assay D2S (h), [3H]methyl-spiperone, HEK-293 cells. Conditions: read-out: D2 [%]. Further details: expressed in transfected cells; host or cells: HEK-293 cells. Put shortly:
as §1
Target sequence in this assay (P14416 1-414 isoform P14416-2): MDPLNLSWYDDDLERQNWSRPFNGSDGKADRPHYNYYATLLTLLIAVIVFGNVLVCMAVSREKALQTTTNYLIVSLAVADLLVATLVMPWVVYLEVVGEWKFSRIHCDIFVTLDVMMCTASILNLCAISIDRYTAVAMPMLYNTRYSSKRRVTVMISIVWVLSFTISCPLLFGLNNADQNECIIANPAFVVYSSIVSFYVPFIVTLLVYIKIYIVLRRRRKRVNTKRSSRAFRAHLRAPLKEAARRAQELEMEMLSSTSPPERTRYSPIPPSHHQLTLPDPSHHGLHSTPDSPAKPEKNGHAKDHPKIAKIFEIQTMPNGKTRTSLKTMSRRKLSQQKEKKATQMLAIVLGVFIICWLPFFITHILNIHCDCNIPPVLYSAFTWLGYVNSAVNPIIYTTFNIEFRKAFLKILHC

In assay [6] the target is serotoninergic 5-HT7 receptor (Homo sapiens, UniProt P34969). The experiment in a line: Cellular functional assay, serotoninergic 5-HT7 receptor (agonism/antagonism). The class given is cell-based. The note with it: for activation at 1 µM: agonist effect, percent of control specific agonist response, compounds tested at 1×10^−6M, read-out: 5-HT7-ag [%]; for inhibition at 1 µM: read-out: 5-HT7-antag. [%]. How it is done:
as §2, §3

Another assay has as its target T5, muscarinic M3 receptor (Homo sapiens, UniProt P20309).
T5 construct: expressed in transfected cells; host or cells: CHO cells
The experiment in a line: Binding assay M3 (h), [3H]4-DAMP, CHO cells. Conditions: read-out: M3 [%]. Put shortly:
as §1

Assay [7] concerns the target T3, adrenergic α2C receptor. The experiment in a line: Cellular functional assay, adrenergic α2C receptor (agonism/antagonism). The assay is classed as cell-based. Conditions: for activation at 1 µM: agonist effect, percent of control specific agonist response, compounds tested at 1×10^−6M, read-out: α2C −ag [%]; for inhibition at 1 µM: read-out: α2C −antag. [%]. How it is done:
as §2, §3

histaminergic H1 receptor, sequence (P35367 whole entry): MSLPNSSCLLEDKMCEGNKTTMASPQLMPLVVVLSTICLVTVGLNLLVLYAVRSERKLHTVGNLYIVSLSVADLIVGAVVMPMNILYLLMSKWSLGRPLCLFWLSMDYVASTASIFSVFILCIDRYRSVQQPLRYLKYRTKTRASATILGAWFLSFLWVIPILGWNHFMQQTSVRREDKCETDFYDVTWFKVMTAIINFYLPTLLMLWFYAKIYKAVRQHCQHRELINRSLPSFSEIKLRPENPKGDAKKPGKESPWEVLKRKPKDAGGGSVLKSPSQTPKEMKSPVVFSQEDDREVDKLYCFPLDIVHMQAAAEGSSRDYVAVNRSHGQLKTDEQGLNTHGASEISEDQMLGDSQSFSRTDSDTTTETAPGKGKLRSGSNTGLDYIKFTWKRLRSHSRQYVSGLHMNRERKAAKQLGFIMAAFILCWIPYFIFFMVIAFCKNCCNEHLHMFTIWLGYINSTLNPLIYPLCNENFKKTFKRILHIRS
T5 sequence (P20309 whole entry): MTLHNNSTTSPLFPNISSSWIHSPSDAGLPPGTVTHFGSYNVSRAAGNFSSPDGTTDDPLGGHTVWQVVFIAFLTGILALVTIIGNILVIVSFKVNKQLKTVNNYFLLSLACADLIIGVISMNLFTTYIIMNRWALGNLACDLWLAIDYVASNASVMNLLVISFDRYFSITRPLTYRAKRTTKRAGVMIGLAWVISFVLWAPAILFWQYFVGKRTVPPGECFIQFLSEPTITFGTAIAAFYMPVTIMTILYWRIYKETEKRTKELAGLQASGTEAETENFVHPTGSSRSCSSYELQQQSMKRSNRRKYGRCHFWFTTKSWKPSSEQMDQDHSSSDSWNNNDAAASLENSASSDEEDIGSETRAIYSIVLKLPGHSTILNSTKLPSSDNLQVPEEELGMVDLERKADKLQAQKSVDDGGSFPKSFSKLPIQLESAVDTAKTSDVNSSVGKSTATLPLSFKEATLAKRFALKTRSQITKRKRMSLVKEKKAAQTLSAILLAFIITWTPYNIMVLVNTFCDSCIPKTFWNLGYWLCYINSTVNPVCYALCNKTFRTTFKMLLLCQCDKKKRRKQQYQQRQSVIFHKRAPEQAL
serotoninergic 5-HT7 receptor, sequence (P34969 whole entry): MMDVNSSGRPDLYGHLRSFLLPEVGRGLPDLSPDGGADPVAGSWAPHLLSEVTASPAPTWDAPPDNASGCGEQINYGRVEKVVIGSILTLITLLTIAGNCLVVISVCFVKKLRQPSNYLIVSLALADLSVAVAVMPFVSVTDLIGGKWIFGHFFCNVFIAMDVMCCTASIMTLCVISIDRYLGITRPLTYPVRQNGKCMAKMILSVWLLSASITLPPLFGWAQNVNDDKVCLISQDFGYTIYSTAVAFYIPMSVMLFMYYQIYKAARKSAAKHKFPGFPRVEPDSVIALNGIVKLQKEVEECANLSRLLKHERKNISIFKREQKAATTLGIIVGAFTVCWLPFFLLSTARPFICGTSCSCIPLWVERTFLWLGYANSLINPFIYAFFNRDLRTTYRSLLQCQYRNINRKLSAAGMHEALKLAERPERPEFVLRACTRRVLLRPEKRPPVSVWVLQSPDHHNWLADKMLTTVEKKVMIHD

Turning to `O=S(=O)(NCCCCN1CCN(c2cccc3[nH]ccc23)CC1)c1cnc2ccccn12` [Compound 30, N-{4-[4-(1H-Indol-4-yl)piperazin-1-yl]butyl}-imidazo[1,2-a]pyridine-3-sulphonamide], the activation at 1 µM at adrenergic α1A receptor turned out to be 0%; at dopaminergic D2 receptor [2] it was 43%; in assay [6], 5%; on adrenergic α2C receptor [7], 18%. In addition, the inhibition at 1 µM at adrenergic α1A receptor is 97%; in [1], 40%; at dopaminergic D2 receptor [2] it was 97%; at adrenergic α2C receptor [3], 99%; in assay [4], 100%; on dopaminergic D2 receptor [5], 98%. In addition, the inhibition at 1 µM in [6] was 73%; at muscarinic M3 receptor, 66%; at adrenergic α2C receptor [7] it was 35%. Moreover, the “σ [%]” value with sigma σ receptor is 42%.

Turning to `O=S(=O)(NCCCCN1CCN(c2cccc3[nH]ccc23)CC1)c1cc2ccccc2s1` [Compound 33, N-{4-[4-(1H-Indol-4-yl)piperazin-1-yl]butyl}-1-benzothiophene-2-sulphonamide], the activation at 1 µM on adrenergic α1A receptor is 0%; at dopaminergic D2 receptor [2], 37%; in [6], 19%; at adrenergic α2C receptor [7] it was -1%. Besides, the inhibition at 1 µM worked out at 100% on adrenergic α1A receptor; 56% in [1]; 98% on dopaminergic D2 receptor [2]; 100% on adrenergic α2C receptor [3]; 100% in assay [4]; 97% at dopaminergic D2 receptor [5]. In addition, the inhibition at 1 µM in [6] came out at 20%; at muscarinic M3 receptor, 5%; at adrenergic α2C receptor [7], 6%. Besides, the “σ [%]” value in the assay on sigma σ receptor worked out at 94%.

As for `O=S(=O)(NCCCCN1CCN(c2nsc3ccccc23)CC1)c1ccc2cc(Cl)ccc2c1` [Compound 61, N-[4-[4-(1,2-Benzothiazol-3-yl)piperazin-1-yl]butyl]-6-chloro-naphthalene-2-sulphonamide], the activation at 1 µM at adrenergic α1A receptor was 0%; at dopaminergic D2 receptor [2] it was 4%; in [6] it was -1%; at adrenergic α2C receptor [7] it was 1%. Also, the inhibition at 1 µM at adrenergic α1A receptor was found to be 100%; in assay [1], 97%; at dopaminergic D2 receptor [2], 77%; at adrenergic α2C receptor [3], 101%; in assay [4], 94%; on dopaminergic D2 receptor [5], 100%. For the same compound, the inhibition at 1 µM is 78% in assay [6], 5% on muscarinic M3 receptor and 18% at adrenergic α2C receptor [7]. Further, in the assay on sigma σ receptor, the “σ [%]” value is given as 46%.

In the case of `Cc1c(S(=O)(=O)NCCCCN2CCN(c3nsc4ccccc34)CC2)sc2ccc(F)cc12` [Compound 65, N-[4-[4-(1,2-Benzothiazol-3-yl)piperazin-1-yl]butyl]-5-fluoro-3-methylbenzothiophene-2-sulphonamide], the activation at 1 µM on adrenergic α1A receptor is 0%; on dopaminergic D2 receptor [2], 10%; in assay [6], -2%; on adrenergic α2C receptor [7], 8%. Besides, the inhibition at 1 µM on adrenergic α1A receptor stood at 98%; in assay [1], 95%; at dopaminergic D2 receptor [2], 74%; at adrenergic α2C receptor [3], 104%; in assay [4] it was 100%; on dopaminergic D2 receptor [5] it was 99%. The values for the inhibition at 1 µM (in assay [6]; on muscarinic M3 receptor; at adrenergic α2C receptor [7]) were 91%, 8% and 20%, respectively. Also, the “σ [%]” value in the assay on sigma σ receptor came out at 62%.

Take `Cc1c(S(=O)(=O)NCCCCN2CCN(c3noc4ccccc34)CC2)sc2ccc(F)cc12` [Compound 81, N-[4-[4-(1,2-Benzoxazol-3-yl)piperazin-1-yl]butyl]-5-fluoro-3-methylbenzothiophene-2-sulphonamide]: the activation at 1 µM at adrenergic α1A receptor was 1%; at dopaminergic D2 receptor [2] it was 4%; in assay [6], -2%; on adrenergic α2C receptor [7] it was 9%. For the same compound, the inhibition at 1 µM on adrenergic α1A receptor is 100%; in assay [1] it was 93%; at dopaminergic D2 receptor [2], 73%; at adrenergic α2C receptor [3], 106%; in assay [4] it was 92%; at dopaminergic D2 receptor [5] it was 90%. Moreover, the inhibition at 1 µM turned out to be 98% in assay [6], 6% on muscarinic M3 receptor and 20% at adrenergic α2C receptor [7]. The “σ [%]” value in the assay on sigma σ receptor worked out at 59%.

Consider `O=S(=O)(NCCCCN1CCC(c2noc3cc(F)ccc23)CC1)c1ccc2cc(Cl)ccc2c1` [Compound 97, 6-Chloro-N-[4-[4-(6-fluoro-1,2-benzoxazol-3-yl)piperidin-1-yl]butyl]naphthalene-2-sulphonamide], for which the activation at 1 µM at adrenergic α1A receptor was 0%; at dopaminergic D2 receptor [2] it was 4%; in assay [6], -2%; on adrenergic α2C receptor [7] it was -4%. Moreover, the inhibition at 1 µM was determined as 99% at adrenergic α1A receptor; 91% in [1]; 95% at dopaminergic D2 receptor [2]; 100% at adrenergic α2C receptor [3]; 75% in assay [4]; 100% on dopaminergic D2 receptor [5]. In addition, the values for the inhibition at 1 µM (in assay [6]; on muscarinic M3 receptor; at adrenergic α2C receptor [7]) were 100%, 16% and 36%, respectively. Also, the “σ [%]” value in the assay on sigma σ receptor was 55%.

Consider `Cc1c(S(=O)(=O)NCCCCN2CCC(c3noc4cc(F)ccc34)CC2)sc2ccc(F)cc12` [Compound 101, 5-Fluoro-N-[4-[4-(6-fluoro-1,2-benzoxazol-3-yl)piperidin-1-yl]butyl]-3-methylbenzothiophene-2-sulphonamide], for which the activation at 1 µM on adrenergic α1A receptor was 0%; on dopaminergic D2 receptor [2] it was 6%; in assay [6], -2%; at adrenergic α2C receptor [7] it was 1%. Also, the inhibition at 1 µM on adrenergic α1A receptor was 100%; in assay [1], 97%; at dopaminergic D2 receptor [2], 85%; on adrenergic α2C receptor [3], 106%; in assay [4], 82%; on dopaminergic D2 receptor [5], 99%. The inhibition at 1 µM in assay [6] came out at 101%; at muscarinic M3 receptor it was 14%; on adrenergic α2C receptor [7], 46%. In addition, the “σ [%]” value in the assay with sigma σ receptor is 70%.
